Assay results: patent US5403930A, “Substituted salicylic acids” (Pharmacia AB, priority 1991, dated 1995)
“Also recorded” adds a separate entry of the source.

Columns and labels:
human lymphocytes = assay: Concanavalin A-induced proliferation of human lymphocytes ([3H]-thymidine); format: cell-based; settings: Lymphocyte, 72 h, 250 μM test compound, 2.5 μg/ml Concanavalin A, 3 days, 2 experiments
Method: (§1) Effect of Compounds on Human Lymphocyte Proliferation Peripheral blood mononuclear cells were isolated from heparinized blood from healthy volunteers by density gradient centrifugation as described by Bain and Pshyk, Transplantation Proc, 4:163-164 (1972). Cell proliferation induced by Concanavalin A was measured in a standard assay such as described in Soderstrom et at., Scand J Immunol, 32:503-516 (1990) using 5% fetal bovine serum in the culture medium. The reaction mixture (final concentrations) consisted of 200 000 cells stimulated with 2.5 μg/ml Concanavalin A and test compounds in a total volume of 0.2 ml. The test compounds were added at the start of the assay, which was run for a total of three days with addition ofradioactive [3H]-thymidine during the last 18 h. Cell bound radioactivity was measured in a liquid scintillation counter.

Human Granulocytes [1] = assay: FMLP-induced superoxide production of human granulocytes, 10 μM test compound; format: cell-based; settings: 10 nM FMLP, 400 000 granulocytes
Method: Effects of Test Compounds on Superoxide Production of Human Granulocytes
(§2) Granulocytes were isolated from the heparinized blood from healthy volunteers. The superoxide assay was essentially that of J. M. McCord and I Fridovich (J. Biol. Chem. 244:6049-6055 (1969)) as modified by G Carlin et al. (Pharmacol. Toxicol 65:121-127 (1989)). The reaction mixture contained (final concentrations) 125 μM cytochrome C in Dulbeccos phosphate buffer with Mg and Ca, 10 μM test compound and 400 000 granulocytes treated with 5 μg/ml of cytochalasin B immediately before the experiment. This reaction mixture was preincubated at 37° C. for 10 minutes, whereafter 10 nM N-formyl-L-methionyl-L-leucyl-L-phenylalanine was added to start the reaction, making the final volume 1 ml. After 10 minutes the tubes were centrifuged and the absorbance of the supernatant at 540 and 550 nm was measured. The superoxide production was expressed as the difference in absorbance at these wavelengths.

[2] = system: human lymphocytes and granulocytes; assay: Overall activity judged from the results of Examples 40 to 42
Method: as §1, with “Peripheral” for “Effect of Compounds on Human Lymphocyte Proliferation Peripheral”
as §2
as §2, with “et at.” for “et al.”, “Ca, 100” for “Ca, 10”, “and 600” for “and 400”, “whereafter 100” for “whereafter 10”

Human Granulocytes [3] = assay: FMLP-induced superoxide production of human granulocytes, 100 μM test compound; format: cell-based; settings: 100 nM FMLP, 600 000 granulocytes
Method: Effects of Test Compounds on Superoxide Production of Human Granulocytes at 100 um Concentration
as §2, with “et at.” for “et al.”, “Ca, 100” for “Ca, 10”, “and 600” for “and 400”, “whereafter 100” for “whereafter 10”

CN(c1ccccn1)S(=O)(=O)c1ccc(C=Cc2ccc(O)c(C(=O)O)c2)cc1 [Example 22, 2-Hydroxy-5-[2-[4-[N-methyl-(2-pyridinyl)aminosulfonyl]phenyl]ethenyl]benzoic acid]
inhibition at 250 µM (human lymphocytes): 99.8% | inhibition at 10 µM (Human Granulocytes [1]): 85.5% | Overall activity ranking [2]: most active

CN(c1ccccn1)S(=O)(=O)c1ccc(C#Cc2ccc(O)c(C(=O)O)c2)cc1 [Example 35, 2-Hydroxy-5-[[4-[N-methyl-(2-pyridinyl)aminosulfonyl]phenyl]ethynyl]benzoicacid]
inhibition at 250 µM (human lymphocytes): 99%

O=C(O)c1cc(C=Cc2ccc(S(=O)(=O)Nc3ccccn3)cc2)ccc1O [Example 3, 2-Hydroxy-5-[2-[4-[(2-pyridinylamino)sulfonyl]phenyl]ethenyl]benzoic acid]
inhibition at 250 µM (human lymphocytes): 73.6% | inhibition at 10 µM (Human Granulocytes [1]): 55.7%

Cc1ccnc(NS(=O)(=O)c2ccc(C=Cc3ccc(O)c(C(=O)O)c3)cc2)c1 [Example 25, 2-Hydroxy-5-[2-[4-[(4-methyl-2-pyridinylamino)sulfonyl]phenyl]-ethenyl]benzoic acid ethanol solvate (2:1)]
inhibition at 10 µM (Human Granulocytes [1]): 45.5%

O=C(C=Cc1ccc(S(=O)(=O)Nc2ccccn2)cc1)c1ccc(O)c(C(=O)O)c1 [Example 29, 2-Hydroxy-5-[1-oxo-3-[4-[(2-pyridinylamino)sulfonyl]phenyl]-2-propenyl]benzoic acid]
inhibition at 250 µM (human lymphocytes): 66% | inhibition at 10 µM (Human Granulocytes [1]): 33.4%

Cc1ccnc(NS(=O)(=O)c2ccc(C#Cc3ccc(O)c(C(=O)O)c3)cc2)c1 [Example 33, 2-Hydroxy-5-[[4-[(4-methyl-2-pyridinyl)amino-sulfonyl]phenyl]ethynyl]benzoic acid]
inhibition at 100 µM (Human Granulocytes [3]): 92.1% | Overall activity ranking [2]: most active

CC(C)COC(=O)c1cc(C=Cc2ccc(S(=O)(=O)Nc3ccccn3)cc2)ccc1O [Example 5, Isobutyl 2-hydroxy-5-[2-[4-[(2-pyridinylamino)sulfonyl]phenyl]ethenyl]benzoate]
inhibition at 10 µM (Human Granulocytes [1]): 25.8%

Cc1ccc(NS(=O)(=O)c2ccc(C=Cc3ccc(O)c(C(=O)O)c3)cc2)nc1 [Example 15, 2-Hydroxy-5-[2-[4-[(5-methyl-2-pyridinylamino)sulfonyl]phenyl]ethenyl]benzoic acid]
inhibition at 250 µM (human lymphocytes): 93.9%

Cc1cccnc1NS(=O)(=O)c1cccc(C#Cc2ccc(O)c(C(=O)O)c2)c1 [Example 39, 2-Hydroxy-5-[[3-[(3-methyl-2-pyridinylamino)sulfonyl]phenyl]ethynyl]benzoicacid]
inhibition at 250 µM (human lymphocytes): 100% | inhibition at 100 µM (Human Granulocytes [3]): 93.5% | Overall activity ranking [2]: most active

O=C(O)c1cc(C=Cc2ccc(S(=O)(=O)Nc3ncccc3OCc3ccccc3)cc2)ccc1O [Example 16, 2-Hydroxy-5-[2-[4-[[3-(phenylmethoxy)-2-pyridinylamino]sulfonyl]phenyl]ethenyl]benzoic acid]
inhibition at 250 µM (human lymphocytes): 95.4% | inhibition at 10 µM (Human Granulocytes [1]): 94.6% | Overall activity ranking [2]: most active

O=C(Cc1ccc(S(=O)(=O)Nc2ccccn2)cc1)c1ccc(O)c(C(=O)O)c1 [Example 28]
inhibition at 250 µM (human lymphocytes): 15% | inhibition at 10 µM (Human Granulocytes [1]): 17.9%

O=C(O)c1cc(C#Cc2ccc(S(=O)(=O)Nc3ccccn3)cc2)ccc1O [Example 1, 2-Hydroxy-5-[[4-[(2-pyridinylamino)sulfonyl]phenyl]ethynyl]benzoic acid]
inhibition at 250 µM (human lymphocytes): 95.6% | inhibition at 10 µM (Human Granulocytes [1]): 71%

Cc1cccnc1NS(=O)(=O)c1ccc(C#Cc2cc(C(=O)O)c(O)cc2F)cc1 [Example 37, 4-Fluoro-2-hydroxy-5-[[4-[(3-methyl-2-pyridinylamino)sulfonyl]phenyl]ethynyl]benzoic acid]
inhibition at 250 µM (human lymphocytes): 100% | inhibition at 100 µM (Human Granulocytes [3]): 97.5% | Overall activity ranking [2]: most active

O=C(O)c1cc(C#Cc2ccc(S(=O)(=O)Nc3nc4ccc(F)cc4s3)cc2)ccc1O [Example 34]
inhibition at 250 µM (human lymphocytes): 98%

Cc1cc(NS(=O)(=O)c2ccc(C=Cc3ccc(O)c(C(=O)O)c3)cc2)no1 [Example 18, 2-Hydroxy-5-[2-[4-[(5-methyl-3-isoxazolyl)aminosulfonyl]phenyl]ethenyl]benzoic acid]
inhibition at 250 µM (human lymphocytes): 43.8% | inhibition at 10 µM (Human Granulocytes [1]): 44.2%

O=C(O)c1cc(C#Cc2ccc(S(=O)(=O)Nc3ccc(Cl)cn3)cc2)ccc1O [Example 32, 5-[[4-[(5-Chloro-2-pyridinylamino)sulfonyl]phenyl]ethynyl]-2hydroxybenzoic acid]
inhibition at 250 µM (human lymphocytes): 100%

O=C(O)c1cc(C=Cc2ccc(S(=O)(=O)Nc3cnccn3)cc2)ccc1O [Example 20, 2-Hydroxy-5-[2-[4-[(2-pyrazinyl)aminosulfonyl]phenyl]ethenyl]benzoic acid]
inhibition at 250 µM (human lymphocytes): 34.8% | inhibition at 10 µM (Human Granulocytes [1]): 35.1%

Cc1cccnc1NS(=O)(=O)c1ccc(C=Cc2ccc(O)c(C(=O)O)c2)cc1 [Example 4, 2-Hydroxy-5-[2-[4-[(3-methyl-2-pyridinylamino)sulfonyl]phenyl]ethenyl]benzoic acid]
inhibition at 250 µM (human lymphocytes): 92.3% | inhibition at 10 µM (Human Granulocytes [1]): 76.9%

O=C(O)c1cc(CCc2ccc(S(=O)(=O)Nc3ccccn3)cc2)ccc1O [Example 26, 2-Hydroxy-5-[2-[4-[(2-pyridinylamino)sulfonyl]phenyl]ethyl]benzoic acid]
inhibition at 250 µM (human lymphocytes): 16% | inhibition at 10 µM (Human Granulocytes [1]): 26.8%

O=C(O)c1cc(C=Cc2ccc(S(=O)(=O)Nc3nc4ccc(F)cc4s3)cc2)ccc1O [Example 21, 2-Hydroxy-5-[2-[4-[[6-fluoro-(2-benzo[d]thiazolyl)]aminosulfonyl]phenyl]ethenyl]benzoic acid]
inhibition at 250 µM (human lymphocytes): 99.8% | inhibition at 10 µM (Human Granulocytes [1]): 93% | Overall activity ranking [2]: most active

Cc1cccnc1NS(=O)(=O)c1ccc(C#Cc2ccc(O)c(C(=O)O)c2)cc1 [Example 2, 2-Hydroxy-5-[[4-[(3-methyl-2-pyridinylamino)-sulfonyl]phenyl]ethynyl]benzoic acid]
inhibition at 250 µM (human lymphocytes): 99.5% | inhibition at 10 µM (Human Granulocytes [1]): 86% | inhibition at 100 µM (Human Granulocytes [3]): 94.1% | Overall activity ranking [2]: most active; also recorded: considered to be the best one

Cc1cccnc1NS(=O)(=O)c1ccc(C=Cc2cc(C(=O)O)c(O)cc2F)cc1 [Example 38, 4-Fluoro-2-hydroxy-5-[2-[4-[(3-methyl-2-pyridinylamino)sulfonyl]phenyl]ethenyl]benzoic acid]
inhibition at 250 µM (human lymphocytes): 100% | inhibition at 100 µM (Human Granulocytes [3]): 98.7% | Overall activity ranking [2]: most active

Cc1cccnc1NS(=O)(=O)c1ccc(CC(=O)c2ccc(O)c(C(=O)O)c2)cc1 [Example 27, 2-Hydroxy-5-[[4-[(3-methyl-2-pyridinylamino)sulfonyl]phenyl]acetyl]benzoic acid]
inhibition at 250 µM (human lymphocytes): 37.3% | inhibition at 10 µM (Human Granulocytes [1]): 32.7%

O=C(O)c1cc(C#Cc2ccc(S(=O)(=O)Nc3ncccc3OCc3ccccc3)cc2)ccc1O [Example 31, 2-Hydroxy-5-[[4-[[3-(phenylmethoxy)-2-pyridinylamino]sulfonyl]phenyl]ethynyl]benzoic acid]
inhibition at 250 µM (human lymphocytes): 100%

O=C(O)c1cc(C=Cc2ccc(S(=O)(=O)Nc3ccc(Cl)cn3)cc2)ccc1O [Example 17, 5-[2-[4-[(5-Chloro-2-pyridinylamino)sulfonyl]phenyl]ethenyl]-2hydroxybenzoic acid]
inhibition at 250 µM (human lymphocytes): 99.5% | inhibition at 10 µM (Human Granulocytes [1]): 71.9% | Overall activity ranking [2]: most active

Cc1ccnc(NS(=O)(=O)c2ccc(C=Cc3ccc(O)c(C(=O)O)c3)cc2)n1 [Example 19, 2-Hydroxy-5-[2-[4-[(4-methyl-2-pyrimidyl)amino-sulfonyl]phenyl]ethenyl]benzoic acid ethanol solvate (2:1)]
inhibition at 250 µM (human lymphocytes): 10.3% | inhibition at 10 µM (Human Granulocytes [1]): 65.9%
